“Also recorded” adds a separate entry of the source. Structures can show the parent of a compound that is named as a salt. Where two headings read alike, the source gives them in different places.
Key:
[1] = tested on: heart; settings: in vivo; cited from earlier work
[2] = tested on: α2-adrenergic receptor sites; settings: cited from earlier work
[3] = tested on: α2-receptor sites; settings: central nervous system; cited from earlier work
[4] = tested on: peripheral α-adrenergic receptors; settings: used as an antihypertensive; initial stimulation of peripheral α-adrenergic receptors; cited from earlier work
[5] = tested on: bulbar sympathetic cardioaccelerator and sympathetic vasoconstrictor centers; settings: in vivo; cited from earlier work
[6] = tested on: choroid of the eye; settings: rats; clonidine hydrochloride; cited from earlier work
[7] = patient; cited from earlier work
[8] = molecular target: T1, α2-adrenergic receptor (Homo sapiens, UniProt P08913); settings: human platelet membranes, comparison with other drugs
T1 sequence (P08913 1-465): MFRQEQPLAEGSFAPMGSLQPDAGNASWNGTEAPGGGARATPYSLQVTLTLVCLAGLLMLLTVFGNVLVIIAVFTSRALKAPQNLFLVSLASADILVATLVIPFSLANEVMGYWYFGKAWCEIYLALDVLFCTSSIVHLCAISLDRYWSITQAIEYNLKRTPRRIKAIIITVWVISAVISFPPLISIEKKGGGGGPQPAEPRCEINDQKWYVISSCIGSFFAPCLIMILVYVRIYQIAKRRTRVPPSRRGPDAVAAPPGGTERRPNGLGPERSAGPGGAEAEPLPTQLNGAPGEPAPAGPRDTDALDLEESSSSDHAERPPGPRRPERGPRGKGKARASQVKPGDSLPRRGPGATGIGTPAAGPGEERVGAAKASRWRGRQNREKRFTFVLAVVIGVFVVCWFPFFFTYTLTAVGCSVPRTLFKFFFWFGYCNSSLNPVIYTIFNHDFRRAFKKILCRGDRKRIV
Description: (§1) Human platelet plasma membranes were prepared by sonication of human platelet concentrates (Red Cross) followed by centrifugation on a discontinuous sucrose gradient (14%/34% by weight) for 3 hours at 140,000 x g. The membrane fraction was collected from the interface of the heavy and light sucrose, and will be herein designated as purified platelet plasma membrane (PPM).
(§2) Bound radioactivity was measured by scintillation counting of the GF/C filter in OCF scintillation cocktail (Amerscham) on a Beckman LR 8100 scintillation counter.
(§3) IC50 is the concentration of compound which reduces binding to 50% of the initial value.

[9] = molecular target: T1, α2-adrenergic receptor; assay: biochemical
Description: as §1, §2, §3

SMILES: Clc1cccc(Cl)c1N=C1NCCN1 [Clonidine, 2-(2,6-dichlorophenylamine)-2-imidazoline]
- tissue localization [1]: known to localize in the heart
- binding site specificity [2]: binds preferentially to α2 -adrenergic receptor sites
- response to activation of α2-receptor sites [3]: response similar to norepinephrine in the central nervous system
- initial vascular effect [4]: transient vasoconstriction
- sympathetic outflow from the brain [5]: decrease in sympathetic outflow from the brain

SMILES: Clc1cccc(Cl)c1N=C1NCCN1 [clonidine hydrochloride]
- buildup in the choroid of the eye [6]: significant buildup of clonidine occurs in the choroid of the eye
- retinal degeneration [6]: possibility of retinal degeneration
- route of excretion of drug and metabolites [7]: leave the patient primarily through urinary discharge

SMILES: Clc1cc(I)cc(Cl)c1N=C1NCCN1 [p-Iodoclonidine, 2-(2,6-dichloro-4-iodophenylimino-2)imidazolidine]
- relative affinity / potency in competition for α2-adrenergic receptor sites, in words [8]: greater affinity for the receptor than clonidine
- relative affinity / potency in competition for α2-adrenergic receptor sites, in words ([8]; listed as p-iodoclonidine): more potent than either p-aminoclonidine or clonidine in competition for α2 -adrenergic receptor sites; also recorded: more potent (IC50 =1.3) than clonidine, p-aminoclonidine, or yohimbine; also recorded: binds better than epinephrine
- IC50 [9]: 1.3 nM
